Measurements taken from paper doi:10.1101/2022.12.26.521971v1 (biorxiv, 2022).

Biological target: rNTSR1 (wild-type rat Neurotensin Receptor 1) (Rattus norvegicus, UniProt P20789)
Test: cell-based
Parameters: species or system HEK293T

Chain of rNTSR1 (wild-type rat Neurotensin Receptor 1) (P20789 whole entry): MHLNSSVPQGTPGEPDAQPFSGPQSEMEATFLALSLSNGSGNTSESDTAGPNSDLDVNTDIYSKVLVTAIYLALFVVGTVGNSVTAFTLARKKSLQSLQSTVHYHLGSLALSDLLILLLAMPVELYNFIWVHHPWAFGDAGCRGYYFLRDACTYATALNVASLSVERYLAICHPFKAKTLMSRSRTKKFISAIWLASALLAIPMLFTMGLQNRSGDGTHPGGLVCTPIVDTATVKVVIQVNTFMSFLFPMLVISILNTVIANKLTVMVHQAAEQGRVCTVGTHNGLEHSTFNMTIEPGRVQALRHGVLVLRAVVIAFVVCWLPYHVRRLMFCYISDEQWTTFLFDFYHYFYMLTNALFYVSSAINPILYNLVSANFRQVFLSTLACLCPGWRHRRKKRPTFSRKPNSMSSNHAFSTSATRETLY

SMILES: COc1cc2nc(C3CC3)nc(N3CCN(c4ccccc4OC)CC3)c2cc1OC [ML314]
- Kb: 776 nM
